Measurements published in patent publication US20030017166A1, “Combination preparation for the therapy of immunological diseases” (priority 2001, published 2003).

Experiments:
[1] = system: contact allergy to nickel and cobalt (contact dermatitis); assay: Contact dermatitis induced with nickel or cobalt vaseline preparations in volunteer test subjects; assay type: in vivo, human
From the text: Contact dermatitis was selected as a model disease for the large number of T cell-mediated immune reactions (generally: overshooting damaging immune reactions) since it can be induced by applying the contact allergens to the skin and the severity of the inflammatory reaction and immune reaction can readily be assessed by observing the skin symptoms.
The contact allergies were induced by applying preparations in white vaseline. These vaseline preparations contained either 1% cobaltII chloride or 5% nickelII sulfate.
For inducing the contact dermatitis, the vaseline preparation was applied once daily to an area of approx. 2×2 cm^2, usually on the upper arm or the lower arm.
The contact dermatitis was subdivided into the following levels in accordance with the extent of the inflammatory reaction:
Level 1: very minor inflammatory reaction, slight reddening of the skin;
Level 2: minor inflammatory reaction, reddening of the skin and possible itching;
Level 3: slight inflammatory reaction, reddening and edematous swelling of the skin, itching;
Level 4: moderate inflammatory reaction, reddening, edematous swelling, vesicles or blister formation, itching;
Level 5: pronounced inflammatory reaction: reddening, edematous swelling, vesicles and blister formation, weeping erosions and possible incrustation.
The severity of the inflammatory reaction which occurred was controlled by administering Ultralan® tablets systemically. When the antigen-specific regulatory immune response was induced, the inflammatory reaction was kept in the range of levels 1 and 2 by administering fluocortolone (Ultralan®). If a contact dermatitis of level 3 or higher developed despite the administration of Ultralan®, the dose of Ultralan® was then increased up to the next dosage level. If required, the dose was increased once again 2 days after the last increase in the dose.
As soon as it was no longer possible to observe any symptoms of the contact dermatitis at a given dosage level of Ultralan®, the dose was reduced on the following day and subsequently maintained once again until all the symptoms of the contact allergy had disappeared, after which the dose of Ultralan was reduced once again until, finally, it was no longer necessary to administer any Ultralan®.
As a rule, the following gradations in the daily doses of Ultralan® were employed: 20 mg, 15 mg, 10 mg, 7.5 mg, 5 mg, 2.5 mg and 0 mg.
An appropriate blood level of leflunomide was achieved by means of a loading dose of 100 mg on the first three consecutive days of the leflunomide therapy; after that, the leflunomide dose was reduced to 20 mg per day. Unless otherwise stated, this dose of leflunomide was maintained for up to 30 days after the time point at which the administration of flucortolone was terminated.
Subsequently, the leflunomide was eliminated at an accelerated rate from the body by means of administering 3× daily doses of 8 grams of cholestyramine over a period of 10 days.
As described above, the antigen is applied to the skin once a day using a preparation prepared from white vaseline. As a rule, the antigen was administered up to the tenth day after the last administration of leflunomide.
In the investigations into the development of a regulatory immune response in connection with the contact dermatitis, a fresh exposure to the antigen against which a regulatory immune response had been developed was carried out no earlier than 1 month after the last contact with the antigen.

[2] = system: allergic rhinitis/conjunctivitis against hazelnut pollen and grass pollen; assay: Allergic rhinitis/conjunctivitis on exposure to hazelnut pollen or grass pollen in patients; assay type: in vivo, human
From the text: The effect of the combination therapy on type I allergy (allergic conjunctivitis and rhinitis) was investigated since type I allergy is an antibody-induced disease which is regulated by T cells. […] In the allergy investigations, contact with the antigen took place aerogenically, by exposure to hazelnut pollen or the pollen of grasses.
First of all, the test subjects were exposed to the allergen pollens in order to verify the existence of the allergy.
After a month, the two test subjects were given a loading dose of in each case 100 mg of leflunomide on 3 consecutive days. The test subjects were then given a constant daily dose of 20 mg of leflunomide.
On the 4th day of the leflunomide administration, the test subjects were exposed to one of the two allergens.
After these 30 days, the leflunomide was eliminated from the body in an accelerated manner by means of the 3× daily administration of cholestyramine over a period of 10 days. During this accelerated elimination, the daily exposure to antigen was continued.
In addition, the test subjects were able to use vasoconstrictors, such as Otriven® nasal drops and Yxin® eyedrops, to alleviate acute symptoms.
Neomycin sulfate was used, at a concentration of 50 mg/ml in physiological sodium chloride solution, as an immunomodulatory substance, as eyedrops and as a metered nasal spray. During the allergen exposure (season of airborne pollen), the neomycin solution was initially administered every 3 hours during the day. As soon as symptoms of an allergic reaction, such as severe itching, tears, flow of nasal secretion or sneezing impulses, occurred, this inflammatory reaction was suppressed, within the first 5 days, by using the dexametasone eyedrops, the dexamethasone nasal spray, xylometazoline nasal drops and Yxin® eyedrops. The steroids and the vasoconstrictors were administered as required.

[3] = system: susceptibility to infection; details: clinical investigations and investigations on experimental animals; cited from earlier work
rheumatoid arthritis = details: monotherapy; cited from earlier work

In the case of `C[C@@H]1C[C@H]2[C@@H]3C[C@H](F)C4=CC(=O)C=C[C@]4(C)[C@H]3[C@@H](O)C[C@]2(C)[C@H]1C(=O)CO` [Ultralan®, fluocortolone], the “contact dermatitis while Ultralan was being reduced stepwise” value ([1]; Investigation 1.1, 4 test subjects, Ultralan alone, no leflunomide, continued allergen exposure) is reported as “reappeared”, the “time to complete disappearance of contact allergy symptoms” value ([1]; Investigation 1.1, Ultralan added to leflunomide and allergen, allergy adjusted to grade 1-2) is reported as 3 to 5 days and the “symptoms of contact allergy after brief Ultralan suppression and discontinuation” value ([1]; Investigation 1.5, allergen continued for further 2 weeks after Ultralan discontinued) is reported as “no symptoms of any contact allergy appeared”. For the same molecule, the “symptoms of contact allergy after abrupt Ultralan discontinuation” value ([1]; Investigation 2.1, 2 test subjects, fully suppressive Ultralan dose for 4 weeks with leflunomide and allergen, one day after discontinuation) was “Massive symptoms of the contact allergy developed”, the “time to disappearance of symptoms” value ([1]; Investigation 3.2, single administration of 5 mg Ultralan with simultaneous leflunomide) was “one” and the “dose of Ultralan sufficient to restrict the symptoms of the contact allergy to levels 1 to 2” value ([1]; systemic tablets, as a rule) was “at most 10 mg/day”. The “allergic symptoms immediately after antigen exposure under Ultralan and vasoconstrictors” value ([2]; Investigation 4.1, 10 mg Ultralan, Otriven nasal drops, Yxin eyedrops, with leflunomide) was “only slight symptoms of an allergic reaction” and the “time to complete disappearance of allergy symptoms directly after antigen exposure” value ([2]; Investigation 4.1, constant treatment with Ultralan and leflunomide) was no more than 4 days.
For `C[C@@H]1C[C@H]2[C@@H]3CCC4=CC(=O)C=C[C@]4(C)[C@@]3(F)[C@@H](O)C[C@]2(C)[C@@]1(O)C(=O)CO` [dexamethasone], the “requirement for dexamethasone administrations, initial average” value ([2]; Investigation 5.1, under neomycin solution 50 mg/ml every 3 hours, start of first 5 days) was 4 administrations per day and the “requirement for dexamethasone administrations, after decrease” value ([2]; Investigation 5.1, under neomycin solution, within the first 5 days) was 2 administrations per day.
For `Cc1oncc1C(=O)Nc1ccc(C(F)(F)F)cc1` [leflunomide, N-(4-trifluoromethylphenyl)-5-methylisoxazole-4-carboxamide], the “symptoms of contact allergy on provocation with the antigen given during leflunomide” value ([1]; Investigation 1.1, 4 weeks after end of treatment cycle, 2 weeks provocation) was “did not appear in any of the test subjects”, the “symptoms of the contact allergy during 30 days of daily leflunomide and antigen” value ([1]; Investigation 1.1, after steroids completely discontinued) was “not possible to observe any symptoms of the contact allergy” and the “symptoms of the contact allergy during accelerated elimination of leflunomide” value ([1]; Investigation 1.1, cholestyramine over 10 days, continued allergen exposure) was “not observed in any of the test subjects”. The “level of skin reaction (contact dermatitis levels 1-5)” value ([1]; Investigation 1.1, leflunomide 100 mg x 3 days then 20 mg/day, allergen from 4th day, within 2 days, before steroids) was 3 to 4 level, the “level of contact dermatitis on exposure to the antigen not given during leflunomide” value ([1]; Investigation 1.2, 4 weeks later, within 2 days) was 3 to 4 level and the “symptoms of contact allergy to the leflunomide-associated allergen applied on still inflamed skin” value ([1]; Investigation 1.3, allergen switched on 3rd day) was “persisted as long as the contact allergen was being administered”. The “contact allergy on re-exposure to the leflunomide-associated antigen after inflammation regressed” value ([1]; Investigation 1.4, after 4 weeks break, exposure period of 2 weeks) was “did not react with any contact allergy”, the “symptoms of contact allergy after switch to the leflunomide-associated antigen under inflammation” value ([1]; Investigation 1.5, period of 2 weeks) was “persisted” and the “level of contact allergy on exposure to the antigen not given during leflunomide” value ([1]; Investigation 1.5, within 2 days) was 3 to 4 level. For the same molecule, the “symptoms of contact allergy on exposure to the leflunomide-associated allergen” value ([1]; Investigation 1.6, 4 weeks later, first 2 weeks of exposure) was “No symptoms of a contact allergy were observed”, the “time to disappearance of inflammatory reactions after UV-A on the side with contact allergen” value ([1]; Investigation 1.6, continued allergen exposure) was no less than 7 days and the “symptoms of inflammation after UV-A irradiation on arm with contact allergen versus arm without” value ([1]; Investigation 1.6, identical irradiation of both arms) was “somewhat stronger”. For the same molecule, the “course of contact allergy on allergen exposure” value ([1]; Investigation 3.1, shortened 2-week phase, days following first reddening) was “increasing symptoms of a contact allergy”, the “onset of slight reddening after beginning allergen exposure” value ([1]; Investigation 3.1, steroid-free leflunomide plus allergen phase shortened from 30 days to 2 weeks, exposure 4 weeks after discontinuing leflunomide) was 3 to 4 days and the “regulatory immune response 4 weeks after treatment” value ([1]; Investigation 3.3, leflunomide and contact allergen continued for 20 days, then accelerated elimination) was “a stable antigen-specific regulatory immune response had developed”. For the same molecule, the “reaction on first allergen exposure under leflunomide” value ([2]; Investigation 4.1, 2 test subjects, 4th day of leflunomide, before steroid) was “reacted immediately with allergic symptoms”, the “allergy symptoms during steroid-free leflunomide plus antigen phase and accelerated elimination” value ([2]; Investigation 4.1, 30 days plus 10 days cholestyramine, daily antigen) was “no symptoms of an allergy appeared” and the “allergic symptoms on re-exposure to the allergen given during leflunomide” value ([2]; Investigation 4.1, after one month break, daily exposure over 2 weeks) was “did not develop any symptoms of an allergic reaction”. For the same molecule, the “allergy symptoms on exposure to the antigen not given during leflunomide” value ([2]; Investigation 4.2, grass pollen dust 1x daily, within 2 days) was “developed symptoms of an allergy”, the “allergy symptoms to the leflunomide-associated antigen under inflammatory conditions” value ([2]; Investigation 4.3, 3rd and 4th day, only leflunomide-associated antigen administered) was “Symptoms of an allergy developed” and the “allergy symptoms on re-exposure to the leflunomide-associated antigen” value ([2]; Investigation 4.4, after a further 4 weeks, 2 weeks of daily exposure) was “No symptoms of an allergy developed”. For the same molecule, the susceptibility to infection [3] was “does not increase susceptibility to infection” and the “effect on rheumatoid arthritis when administered on its own” value (rheumatoid arthritis) was “able to reduce the progression of rheumatoid arthritis but is not able to cure the disease”.
For Neomycin sulfate, the “allergy symptoms on intensified antigen exposure during neomycin” value ([2]; Investigation 5.1, 2 test subjects, direct exposure to hazelnut pollen twice daily, no dexamethasone or cromoglycic acid) was “no allergy symptoms appeared in either of the test subjects”, the “allergy symptoms on re-exposure to the allergen given during neomycin” value ([2]; Investigation 5.1, after a month break, daily exposure for 2 weeks) was “did not exhibit any allergy symptoms” and the “allergy symptoms on exposure to the antigen not given during neomycin” value ([2]; Investigation 5.2, dust of grass pollens 1x daily, within 2 days) was “developed symptoms of an allergy”. For the same molecule, the “allergy symptoms to the neomycin-associated antigen under inflammatory conditions” value ([2]; Investigation 5.3, 3rd and 4th day, only neomycin-associated antigen administered) was “Symptoms of an antigy developed” and the “allergy symptoms on re-exposure to the neomycin-associated antigen” value ([2]; Investigation 5.4, after another break of 4 weeks, 2 weeks of daily exposure) was “had not developed any allergy symptoms”.
